Reference: paper PMC9320513, “Peptide-Mediated Targeted Delivery of Aloe-Emodin as Anticancer Drug” (Molecules, 2022)
Where a SMILES comes first, the peptide text is derived from it. The star is where a group is joined. X1 = O=C(CCCC(=O)*)OCc1cc(O)c2c(c1)C(=O)c1cccc(O)c1C2=O

How the values were obtained:
NK-92 cells [1] = test: Proliferation of NK-92 cells, Ki-67 flow cytometry; format: cell-based, Human; details: 48 h, all concentrations except 50 μM
Experimental: (§1) Apoptosis was quantified using FITC-conjugated annexin V (AV) according to the manufacturer’s protocol (Marine Biological Laboratory, Woods Hole, MA, USA). Annexin V-FITC staining in NK-92 cell lines was determined after 48 h in the absence or presence of different amounts of Aloe-emodin (9 mM stock solution in DMSO) ranging from 6.25 to 50 μM. Proliferation was evaluated by measuring Ki-67 nuclear antigen expression using FITC-labeled anti-human Ki-67 mAb according to the manufacturer’s protocol (BD Biosciences, San Jose, CA, USA). Acquisition was performed on a FACSCalibur flow cytometer (BD Biosciences) and at least 10,000 events per sample were run. Data were analyzed using the Cell Quest Pro software (BD Biosciences) and expressed as mean ± standard deviation from 2 independent experiments.

NK-92 cells [2] = test: Apoptosis in NK-92 cells, Annexin V-FITC flow cytometry; format: cell-based, Human; details: 48 h
Experimental: as §1

A549 cells = test: MTT cell viability assay in A549 cells; format: cell-based, Human
Experimental: (§2) The compounds (2), (3), and (6), were evaluated for cell viability effects using the MTT assay on SKBR3 and A549 cells at 24, 48, and 72 h at different concentrations. Cell lines were seeded into 96-well microtiter plates (Corning, Inc., Corning, NY, USA) at a density of 1 × 10^4 cells/well. After 24 h, cells were exposed to increased concentrations of compounds (previously prepared in PBS to obtain a stock solution of 1 mM) in cell culture medium. After an incubation time of 24, 48, and 72 h, media were removed and MTT (Sigma, Deisenhofen, Germany) diluted in culture media was added to each well at 0.5 mg/mL. Plates were incubated for 2 h at 37 °C in 5% CO2 incubator; unreacted dye was removed, and cells were solubilized in DMSO (Merck, Darmstadt, Germany). Absorbance was read at 570 nm by an ELISA plate reader (Biorad). Data were expressed as cell metabolic activity, which was calculated as the absorbance value of cells treated with different compounds/absorbance value of control (cells incubated with vehicle alone) cells * 100%. All experiments were performed in triplicate, and all data were expressed as the mean ± standard deviation. One-way ANOVA with Dunnett’s multiple comparisons test was performed with respect to the controls (**** p < 0.0001).

SKBR3 cells = test: MTT cell viability assay in SKBR3 cells; format: cell-based, Human
Experimental: as §2

[3] = tested on: NK92 cells killing K562 target cells; test: NK92 cell-mediated cytotoxicity against K562 cells, LDH release; format: cell-based, Human; details: NK92 treated 48 h with 5 to 20 μM, E:T ratio 10:1, 4 h with K562, LDH release, 4 independent experiments
Experimental: To determine NK-92’s cell cytotoxicity, CytoTox 96 non-radioactive cytotoxicity assay (Promega, Madison, WI) was used, based on the colorimetric detection of the released enzyme LDH. NK-92 cells were harvested, washed, counted, and diluted at the concentration of 1 × 10^6 cells/mL in BM with 10% FCS and 100 μ/mL of IL-2. […] Target cells were harvested, washed, resuspended to 1 × 10^5 cells/mL in BM, added, and incubated with effector cells for 4 h at 37 °C employing incresingincreasing effector/target cell ratio ranging from 0.625:1 to 10:1 in triplicate. A total of 50 μL of supernatants were assayed for LDH activity according to the manufacturer’s instruction. Controls for spontaneous and maximum LDH release in effector and target cells were also assayed. The calculation of cytotoxicity percentage was as follows: (Experimental—Effector Spontaneous—Target spontaneous)/(Target Maximum—Target Spontaneous) × 100. Data are expressed as mean ± standard deviation from 4 independent experiments. […] The statistical analysis was performed with GraphPad Prism 8.

NK-92 cells [4] = test: Growth inhibition of NK92 cells, WST-8 assay; details: 20, 10, 5 and 1 µM, 24, 48 and 72 h, WST-8, two independent experiments
Experimental: NK-92 cell lines in exponential phase of growth were collected, extensively washed with warm RPMI-1640, and seeded (in triplicate) in 96-well microtiter Costar plates (Costar, Rochester, NY, USA) at a density of 5 × 10^3 cells/mL. The cells were cultured in BM containing recombinant IL-2(100 IU/mL). In the growth inhibition assays, NK92 cells were maintained for 24, 48, and 72 h at 37 °C alone or in the presence of 20, 10, 5, and 1 µM of Aloe-emodin, glutaryl derivatives of AE and AE-CPP-LTV (6). For all above-described experiments, cell survival was determined by WST-8 assay (Orangu™ Cell Counting SolutionWST-8 cell proliferation kit (Aurogene, Rome, Italy), after 24, 48, and 72 h treatment at 37 °C in 5% CO2. Cells were treated with different compounds/absorbance values of control (cells incubated with vehicle alone) cells * 100%. Statistical analysis was performed by the Student’s t-test (2-tailed) to assess differences between means of data analyzed. The p-values are indicated in the figure legends. The statistical analysis of differences was performed with GraphPad Prism 8.

Compound | proliferation of NK-92 cells (NK-92 cells [1]) | effect on NK-92 cells at the higher dose (NK-92 cells [2]; 50 μM) | apoptosis of NK-92 cells (NK-92 cells [2]; 6.25 to 50 μM, all concentrations except 50 μM, Annexin V-FITC) | comparative cell viability reduction (3 versus AE (2); 6 versus 3 at 20 μM) (A549 cells) | concentration at which effect on cell viability is already seen (A549 cells) | comparative cell viability reduction (3 versus AE (2); 6 versus 3 at 20 μM) (SKBR3 cells) | concentration at which effect on cell viability is already seen (SKBR3 cells) | NK92-mediated cytotoxicity against K562 compared with untreated NK92 cells [3] | growth inhibition of NK-92 cells (NK-92 cells [4])
O=C1c2cccc(O)c2C(=O)c2c(O)cc(CO)cc21 [compound 2, 8-dihydroxy-3-hydroxymethyl-anthraquinone] | neither AE (2) induced apoptosis or affected proliferation | cytotoxic effect | neither AE (2) induced apoptosis or affected proliferation | – | – | – | – | – | –
O=C(O)CCCC(=O)OCc1cc(O)c2c(c1)C(=O)c1cccc(O)c1C2=O [compound 3, 5-((4,5-dihydroxy-9,10-dioxo-9,10-dihydroanthracen-2-yl)methoxy)-5-oxopentanoic acid] | – | – | – | more effective | effective already at 5 µM | more effective | effective already at 5 µM | less NK92-mediated cytotoxicity than the control sample | did not induce growth inhibition
CC(C)C[C@H](NC(=O)CNC(=O)[C@@H]1CCCN1C(=O)CNC(=O)[C@@H](NC(=O)[C@H](CCCCN)NC(=O)[C@H](CCCNC(=N)N)NC(=O)[C@H](CCCCN)NC(=O)[C@H](CCCCN)NC(=O)[C@H](CCCCN)NC(=O)[C@@H]1CCCN1C(=O)CCCC(=O)OCc1cc(O)c2c(c1)C(=O)c1cccc(O)c1C2=O)C(C)C)C(=O)N[C@H](C(=O)N[C@H](C(=O)N[C@@H](CO)C(=O)N1CCC[C@H]1C(=O)N[C@@H](Cc1c[nH]c2ccccc12)C(=O)N[C@@H](Cc1ccc(O)cc1)C(=O)O)C(C)C)[C@@H](C)O [compound 6] (X1-PKKKRKVGPGLTVSPWY-OH) | – | – | – | – | – | – | – | – | did not induce growth inhibition
